Laboratory results: paper PMC8333425, “Discovery of a dual Ras and ARF6 inhibitor from a GPCR endocytosis screen” (Nature Communications, 2021)
Values after ≈ are worked out from the molar mass of the structure shown. Values joined by “and” are separate entries in the source; they are usually repeats but may differ in a detail not shown here. Equal entries are not always repeated. “Also recorded” adds a separate entry of the source.

Tests used:
[1] = Maximal solubility concentration; type: physicochemical
[2] = test system: β-arrestin1 recruitment to B2R; assay: BRET recruitment of β-arrestin1 to B2R; type: cell-based, human
Protocol: HEK293SL cells were seeded at a density of 7.5 × 10^5 cells per 100-mm dish and 24 h later, transiently transfected as such. For receptor internalization experiments, cells were transfected with 0.12 μg AT1R-RlucII, B2R-RlucII, or β2AR-RlucII and 0.48 μg of either rGFP-CAAX (to assess removal from the PM) or rGFP-FYVE (to assess accumulation in the endosomes). For β-arrestin recruitment assays, cells were transfected with 0.48 μg of receptor-YFP along with 0.12 μg of β-arrestin-RlucII. For β-arrestin/AP-2 binding experiments, cells were transfected with 1 μg Flag-AT1R, 1 μg β2-Adaptin-YFP, and 0.12 μg β-arrestin2-RlucII. For G protein activation, cells were transfected with 3 μg of sp-Flag-AT1R along with either 4.5 μg of the Gαq-polycistronic BRET sensor or 0.24 μg of the Gαi3-RlucII and 0.6 μg of GFP10-Gγ2 and Gβ1 sensors or 0.12 μg PKN-RBD-RlucII and 0.48 μg of rGFP-CAAX. For PKC activation, cells were transfected with 3 μg of sp-Flag-AT1R and 0.18 μg of the PKC sensor. For GTPase activation experiments, cells were transfected with 1 μg Flag-AT1R, 0.48 μg of rGFP-CAAX, and either 0.12 μg of GGA3-PBD-RlucII, PAK-CRIB-RlucII or Raf-RBD-RlucII. For biosensor validation experiments, cells were additionally transfected with 500 ng Flag-K-Ras-WT, Flag-K-Ras-G12V, Flag-K-Ras-SOS-CAAX, HA-ARF6-WT, HA-ARF6-T27N, Myc-Rac1-WT, Myc-Rac1-Q61L or Myc-Rac1-T17N. For PI3K/Akt activation experiments, cells were transfected with 0.48 μg of rGFP-CAAX and 0.12 μg of Akt (PH)-RlucII. After 18 h of transfection, the media was replaced and cells were divided for subsequent experiments. Cells were detached and seeded onto poly-L-ornithine-coated 96-well flat white bottom plates (BrandTech Scientific) at a density of 2.5 × 10^4 cells per well in media. The next day, cells were washed once with Tyrode’s buffer (140 mM NaCl, 2.7 mM KCl, 1 mM CaCl2, 12 mM NaHCO3, 5.6 mM D-glucose, 0.5 mM MgCl2, 0.37 mM NaH2PO4, 25 mM HEPES, pH 7.4) and left in Tyrode’s buffer. For kinetics of β-arrestin recruitment or β-arrestin binding to receptor and AP-2 experiments, cells were serum starved for 30 min, pretreated with 21 (50 µM) or Barbadin (100 µM) for 30 min, stimulated with 100 nM AngII or 1 µM BK and BRET signals were monitored at indicated times using a Victor X Light plate reader (PerkinElmer). Coelenterazine H (final concentration of 5 µM) was added 3–5 min prior to BRET measurements. Filter set was 460/80 nm and 535/30 nm for detecting the RlucII Renilla luciferase (donor) and YFP (acceptor) light emissions, respectively. The BRET ratio was determined by calculating the ratio of the light emitted by YFP over the light emitted by the RlucII. For G protein activation, cells were serum starved, pretreated with compounds for 30 min, stimulated with 100 nM AngII for 2 min (Gαq, Gαi3, and Rho sensors) or 5 min (PKC sensor). For the kinetics of GTPase and PI3K/Akt activation, cells were serum starved, pretreated with 21 (50 µM) or Wortmannin (200 nM) for 30 min, stimulated with ligand (100 nM AngII or 100 ng/ml EGF) and BRET signals were monitored at indicated times. For concentration-response curves, cells were serum-starved, pretreated with various concentrations of compounds for 30 min and stimulated with ligand (100 nM AngII, 1 µM BK, 10 µM Isoproterenol (Iso) or 100 ng/ml EGF) in Tyrode’s buffer for 30 min for receptor internalization, 10 min for ARF6, 2 min for Rac and Rho activation and 5 min for Ras activation and PI3K/Akt activation. BRET signals were monitored using a Synergy2 (BioTek) microplate reader and coelenterazine 400a (final concentrations of 5 µM) added 3–5 min prior to BRET measurements. Filter set was 410/80 nm and 515/30 nm for detecting the RlucII Renilla luciferase (donor) and rGFP/GFP10 (acceptor) light emissions, respectively. The BRET ratio was determined by calculating the ratio of the light emitted by rGFP/GFP10 over the light emitted by the RlucII.

BRAF = assay: Western blot of ERK1/2 phosphorylation induced by BRAF (BRAF-WT / BRAF-V600E); type: cell-based, human
Protocol: HEK293SL cells (10^5 cells per well) were seeded in a poly-L-lysine-coated six-well plate and transiently transfected with 3 μg Flag-AT1R, HA-B2R or HA-β2AR and/or 500 ng Flag-MEK1-WT, Flag-MEK1-DD, Flag-BRAF-WT, Flag-BRAF-V600E, Flag-K-Ras-WT, Flag-K-Ras-G12V, HA-ARF6-WT, or HA-ARF6-T27N. Gαq/11 KO and βarr1/2 KO cells were seeded onto 100 mm dishes at a density of 10^6 cells per dish. Next day, cells were transfected with 3 μg AT1R alone or along with 500 ng of β-arrestin2 using PEI. After 18 h of transfection, cells were detached and re-seeded onto poly-L-lysine coated 12-well plates (~1.5–2 × 10^5cells/well) for subsequent experiments. Forty-eight hours post transfection, in a 37 °C water bath, cells were serum-starved for 30 min, pretreated with DMSO (0.1%) or compound 21/Rasarfin (50 µM or at indicated concentrations) for 30 min, then stimulated or not with the indicated ligand [AngII (1 µM), BK (1 µM), Iso (10 µM) or EGF (100 ng/ml)] at indicated times. Cells were put on ice, washed with PBS and solubilized in 2x laemmli buffer (250 mM Tris–HCl pH 6.8, 2% SDS (w/v), 10% glycerol (v/v), 0.01% bromophenol blue (w/v) and 5% β-mercaptoethanol (v/v)) by heating at 65 °C for 15 min. Lysates were resolved on 10 or 14% SDS-PAGE, transferred to nitrocellulose membranes and immunoblotted for p-ERK1/2, ERK1/2, p-Akt, Akt, HA, Myc, β-actin or FLAG. ImageLab 5.2 software was used to quantify the digital blots as fold of the phosphorylated protein over total protein, which were then normalized as indicated in the figure legends. Uncropped immunoblots are provided in the Source Data file.

SMILES | maximal solubility concentration [1] [µM] | β-arrestin1 recruitment to B2R at the PM ([2]; 50 μM) | BK-promoted BRET, Barr1 ([2]; Time 0 min) | BK-promoted BRET, Barr1 ([2]; Time 5 min, listed as Comp 21) | BK-promoted BRET, Barr1 ([2]; Time 10 min, listed as Comp 21) | BK-promoted BRET, Barr1 ([2]; Time 15 min, listed as Comp 21) | BK-promoted BRET, Barr1 ([2]; Time 30 min, listed as Comp 21) | BK-promoted BRET, Barr1 ([2]; Time 60 min, listed as Comp 21) | ERK1/2 activation induced by overexpression of BRAF-V600E (BRAF; 50 μM) | ERK1/2 phosphorylation relative to mock (S_Fig.4d) (BRAF; Flag-BRAF-V600E, listed as Comp 21) | ERK1/2 phosphorylation relative to mock (S_Fig.4d) (BRAF; Flag-BRAF-WT, listed as Comp 21) | ERK1/2 phosphorylation relative to mock (S_Fig.4d) (BRAF; mock) | solubility ([1]; DMSO, organic solvent or mixture, read-out: maximum solubility concentration in DMSO) [µM]
Nn1cnc2scc(-c3ccc(Cc4ccccc4)cc3)c2c1=O [Barbadin, reference compound] | 100 | – | – | – | – | – | – | – | – | – | – | – | –
CC(C)C(=O)N1CCN(c2ccc(NC(=O)c3cc4ccccc4o3)cc2Cl)CC1 [Compound 21] | – | did not preclude; also recorded: lack of inhibition | 0 | 0.04767 and 0.09406 and 0.08157 | 0.06518 and 0.1019 and 0.08421 | 0.06934 and 0.1045 and 0.09014 | 0.0673 and 0.09261 and 0.08457 | 0.06921 and 0.07361 and 0.07333 | nor did it block ERK1/2 activation | 3.464 and 4.631 and 3.5221 and 2.836 | 1 and 1.273 and 1.416 | 1 | ~50 (≈ 21.3 µg/mL)
